Results taken from a melting point compilation (Tetko et al.; mined from patent text by program, amines drawn as free bases though some values may be those of a salt).

SMILES | melting point
CC(C)(C)c1csc(-c2cc3cc(Cc4nc(C(=O)O)cs4)ccc3o2)n1 | 227 to 230 °C
Cc1cccc(-c2nc(-c3ccc(S(C)(=O)=O)cc3)sc2-c2ccnc(Sc3ccccc3)c2)c1 | 116 to 118 °C
S=C=NCC1CC(c2ccc(Br)cc2)=NO1 (stereo unspecified) | 123 to 125 °C
CN1C(=O)C(NC(=O)Nc2ccc(Cl)c(Cl)c2)N=C(c2ccccc2)c2ccccc21 (stereo unspecified) | 274 to 276 °C
c1ccc(CC2CCN2C(c2ccccc2)c2ccccc2)cc1 (stereo unspecified) | 87.5 °C
O=C(c1ccc(-c2cc(Cl)ccc2O)cc1C(F)(F)F)N1CCCC1 | 220 to 221 °C
Cn1ccc2ccc(OCc3ccccc3)cc21 | 79 °C
CC(C)CC(=O)Nc1cccc(-c2ccnc3c(-c4ccc(Cl)c(Cl)c4)cnn23)c1 | 215 to 217 °C
COC(=O)c1ccc(Cc2ccc(O)cc2)cn1 | 184 to 186 °C
CC(=O)Nc1ccc(C(=O)O)c2c1OCCO2 | 233 °C
O=C1NC2CCC(Cc3ccc(O)cc3)CC2CC1CO (stereo unspecified) | 126 to 128 °C
CCOC(=O)c1c(NC(=O)NCC(=O)OC)sc(C)c1C | 151 °C
Cc1ncc(CS)c(COC(=O)c2ccccc2)c1OC(=O)c1ccccc1 | 185 to 189 °C
Cc1cn(S(C)(=O)=O)c2c1C(=O)CC(c1ccccc1)C2 (stereo unspecified) | 80 to 83 °C
CCO/N=C(/C(=O)OCC)c1ccc(OCCOc2ccc3ccccc3c2)s1 | 102 to 104 °C
CC(C)c1cccc(C(C)C)c1NC(=O)[C@H](C)NC(c1ccccc1)c1ccccc1 | 134 to 138 °C
ON1C=CN(c2ccccc2)N1 | 284 to 285 °C
CNC(=O)c1ccsc1Nc1nc(Nc2ccc3c(c2)CCN(CCOC)CC3)ncc1Cl | 217 to 221 °C
O=C(O)c1cn(Cc2ccc(OCc3ccccc3)cc2)nc1-c1ccccc1 | 152 to 153 °C
COc1ccc(CNc2cc3c(Nc4ccc(Br)c(Br)c4)ncnc3cn2)cc1 | 166 to 169 °C
Cc1cc(F)ccc1-c1ccc(S(=O)(=O)N2c3ccccc3CC2C(=O)NCCOc2ccc(C(=O)O)cc2)cc1 (stereo unspecified) | 96 °C
Cc1ccc([N+](=O)[O-])c2[nH]cc(CO)c(=O)c12 | 251 to 255 °C
CCCCc1nc2c(N)nc3ccccc3c2n1CCCCO | 184 to 186 °C
CC1C(=O)NC2=Nc3ccc(OCCCCC(=O)N(CCO)C4CCCCC4)c(Cl)c3CN21 (stereo unspecified) | 206 to 208 °C
CC(C)(C)[Si](C)(C)Oc1ccc(S(N)(=O)=O)cc1 | 117 to 118 °C
O=C(NC1CCC(CCN2CCN(c3nccc4c3OCC4)CC2)CC1)C1CCCOC1 (racemic) | 203 °C

SMILES | melting point
CC(C)(C)c1ccc(OCCOc2ccccc2[N+](=O)[O-])c([N+](=O)[O-])c1 | 114 to 116 °C
CN1CCC(Oc2[nH]nc(-c3ccc(Cl)cc3)c2-c2ccncc2)CC1 | 256 to 257 °C
CC(C)(C)OC(=O)N1CC2CCCCC(C1)C2C=O (stereo unspecified) | 55 to 60 °C
CCOC(=O)c1ccc(S(N)(=O)=O)cc1 | 102 to 104 °C
CO/N=C1\CCc2ccccc2C1=Cc1ccc(S(C)(=O)=O)cc1 | 175 to 178 °C
CN(C)c1nc(N)c2ccccc2n1 | 141 to 142 °C
COc1cc2nc(-c3ccc(Cl)cc3)nc(O)c2cc1OC | 329 °C
C=CCc1cc(OC)c(OC)cc1Cc1cnc(N)nc1N | 170 to 171 °C
O=C(CCN1C(=O)CSC1=S)Nc1ccccc1O | 168 to 170 °C
CC(C)(C)C(=O)NNc1cc(F)c(C#N)cc1F | 167 °C
O=C(NOC(=O)c1ccc(Cl)cc1)OCc1ccccc1 | 97 °C
COc1cc(Cc2cnc(NC(C)=Nc3ccccc3)nc2N)cc(OC)c1OC | 189 °C
CC1CC(=O)NN=C1c1ccc(Cl)c([N+](=O)[O-])c1 (stereo unspecified) | 186 to 188 °C
COCCOCCOC(=O)/C=C/C(=O)/C=C/c1cccc(OC)c1 | 59 to 60 °C
Fc1ccc(C(Cl)(c2ccccc2)c2ccccc2)cc1 | 88 °C
Cc1ccc(C(=O)C2(n3ccnc3)CC2)cc1 | 88 to 90 °C
C=C(C)[C@H](C(=O)OC(c1ccccc1)c1ccccc1)N1C(=O)[C@@H]2N=C(c3ccccc3)O[C@@H]21 | 116 to 118 °C
CC(C)c1cc2sccc2c2c3c([nH]c12)CCNC3 | 197 to 199 °C
C=CCOc1ccccc1OCC(O)CNC1CCc2ccccc2C1 (stereo unspecified) | 98 to 100 °C
CCN(CC)CC(O)CNC(=O)Cn1ncc(-c2ccccc2)c1-c1ccccc1 (stereo unspecified) | 70 to 72 °C
CC(O)c1cccc(-c2ccc3nc(-c4ccc(Cl)cc4)cn3c2)c1F (stereo unspecified) | 193 to 195 °C
O=C(COc1ccc(-c2ccccc2-c2nn[nH]n2)cc1)C1CC1 | 184 to 185 °C
CC(=O)CSc1ccc(S(C)(=O)=O)cc1 | 95 to 97 °C
CCNc1cc(C(C)=NO)ccn1 | 155 to 156 °C
O=c1c2cc(F)c(N3CCCC3)nc2n(C2CC2)c(=O)n1OCc1ccccc1 | 184 to 186 °C
Oc1cc(-c2ccc(F)cc2)nc2ccsc12 | 316 to 318 °C

SMILES | melting point
CC(C)C[C@H](NC(=O)[C@H](CC(C)C)N[C@H](CC(C)C)C(=O)OCc1ccccc1)C(=O)N[C@@H](C)C(N)=O | 133 to 134 °C
COC(=O)c1c(Cl)cc(Cl)cc1NC(=O)C(C)c1ccccc1 (stereo unspecified) | 83 to 84 °C
O=c1[nH]cc(-c2ccnc(Cl)c2)n1-c1ccc(F)cc1 | 270 °C
Cc1cc(Nc2cccc(O)c2)c2c(cnn2C)n1 | 264 to 265 °C
N#CC1CCN(C(c2ccccc2)(c2ccccc2)c2ccccc2)CC1 | 206 °C
C=C(c1ccc(C#N)cc1)c1cncs1 | 71 to 73 °C
CC(N)=CC(=O)C1=C(C)CCCC1(C)C | 124 to 125 °C
COc1cc(NC(=O)c2cc3cc(F)ccc3n2Cc2cccc(F)c2)cnc1N1CCCC1 | 172 to 174 °C
COc1ccc(Nc2c([N+](=O)[O-])cc([N+](=O)[O-])c(Cl)c2C(=O)O)cc1 | 241 to 245 °C
CC(C)(C)c1cc(C(C)(C)C)c(O)c(C(=O)Nc2ccc(S(=O)(=O)C(F)(F)F)cc2Cl)c1O | 149 to 150 °C
CCCCC(=O)OCC(=O)C1C(C)CC2C3CC(Cl)C4=CC(=O)C=CC4(C)C3(Cl)C(O)CC21C (stereo unspecified) | 218 °C
Cn1nc(C(F)(F)F)c(C(=O)O)c1F | 165 to 166 °C
Cc1nn(-c2ccccn2)cc1COc1ccc(COc2ncccc2C#N)cc1 | 108 to 109 °C
CN1CC[C@]2(c3cccc(O)c3)CC(=O)CC[C@@H]2C1 (relative stereo) | 175 °C
CCCc1ncc(C=CC=CC(=O)OCC)s1 | 52 °C
CN(C)S(=O)(=O)c1ccc(N2CC(CO)OC2=O)cc1 (stereo unspecified) | 174 to 176 °C
CONC(=O)Nc1ccc(-c2sc3c(c2CN(C)C(C)c2ccccc2)c(=O)n(-c2ccccc2)c(=O)n3Cc2c(F)cccc2F)cc1 (stereo unspecified) | 191 to 192 °C
COc1cc(C=O)ccc1NC(=O)OCC1c2ccccc2-c2ccccc21 | 150 to 152 °C
CCn1ncc(C(=O)c2cc(C)c3c(c2C)C(=O)C(C)(C)CS3(=O)=O)c1O | 160 to 163 °C
Cn1c2cc(Cl)ccc2c2c(C=O)nn(-c3ccccc3)c(=O)c21 | 235 to 236 °C
CC(C(O)c1cc(F)c(OCc2ccccc2)c(F)c1)N1CCC(O)(c2ccc(C(F)(F)F)cc2)CC1 (stereo unspecified) | 201 to 202 °C
Cc1cncc(C)c1CO | 93 to 95 °C
CN1Cc2c(-c3noc(CN4CCCCC4)n3)ncn2-c2ccc(F)cc2C1=O | 182 to 184 °C
Cn1c2cc(Cl)ccc2c2c(Cl)nc(-c3ccncc3)nc21 | 272 to 274 °C
CS(=O)(=O)c1ccc(-c2ccccc2-c2ccc(C(F)(F)F)cc2)cc1 | 173 to 174 °C
O=C1CCC(N2C(=O)c3cccc(CNC(=O)OCc4ccccc4)c3C2=O)C(=O)N1 (stereo unspecified) | 166 to 168 °C

SMILES | melting point
CC(C)(C)c1ccc(Nc2cccc(Br)n2)c(N)c1 | 125 to 128 °C
CCCOc1ccccc1Nc1ncc(C(=O)OCC)c(=O)[nH]1 | 198 to 200 °C
COc1cc(S(C)=O)c(C)cc1O (stereo unspecified) | 165 to 166 °C
Cc1nnc(-c2ccc3occ(-c4ccc(C(=O)N5CCOCC5)c(F)c4)c3c2)o1 | 167 to 168 °C
Nc1nc(NCCN2CCOCC2)nc(-c2cc(Cl)ccc2Cl)n1 | 159 to 161 °C
Cn1cc(Br)nc(Nc2ccc(C(=O)N3CCOCC3)cc2)c1=O | 276 to 277 °C
NS(=O)(=O)c1ccc(-n2nc(C(F)F)cc2-c2cnccn2)cc1 | 191 to 194 °C
CCCc1c(OCCCC/C=C/c2ccc(C(=O)c3cccc(C(=O)O)c3)cc2CCC(=O)O)ccc2c1OCCC2=O | 105 to 109 °C
CCCc1nn(CC)c2c(=O)n(CCCOc3ccc(SC(C)(C)C(=O)O)cc3)c(C)nc12 | 118 to 120 °C
CNC(=O)NS(=O)(=O)c1cccc2c1OS(=O)(=O)C(C)C2 (stereo unspecified) | 235 to 238 °C
O=C1/C(=C(\NC2CC2)c2ccccc2)Sc2ccccc21 | 131 to 132 °C
O=C(O)c1ccc(OCc2ccc(Cl)c(Cl)c2)cc1 | 222 to 223 °C
CCC1CN(Cc2c(C)cc(C)cc2C)CCN1 (stereo unspecified) | 111 to 114 °C
COc1ccc(CNc2ncccc2C(=O)Nc2cccnc2Cl)cc1 | 122 to 124 °C
O=S1(=O)c2cccc3cccc(c23)N1CCCN1CC=C(c2c[nH]c3ccccc23)CC1 | 226 °C
CCOP(=O)(OCC)C(C)Oc1cc(-n2c(=O)cc(C(F)(F)F)n(C)c2=O)c(F)cc1Cl (stereo unspecified) | 103 °C
CCc1noc(-c2ncn(-c3cccnc3)c2C)n1 | 127 to 128 °C
O=c1cccc(-c2nc(=O)c3ccccc3s2)[nH]1 | 214 to 215 °C
Cc1cccc(Cl)c1C1N=C(N(C)C)Cc2ccccc21 (stereo unspecified) | 153 to 154 °C
CCCN(Cc1ccco1)S(=O)(=O)c1ccc(OC)c2oc(C(C)=O)cc12 | 109 to 111 °C
CC(C)(C(=O)O)c1nc2ccc(OCCCN3CCN(C(c4ccccc4)c4ccccc4)CC3)nn2c1Cl | 118 to 121 °C
COC(=O)c1cc(CO)nn1-c1ncccc1Cl | 104 °C
CN1C(=O)[C@]2(C)CC[C@](NCC(=O)N3CCC[C@H]3C#N)(C1=O)C2(C)C | 141 to 144 °C
